The numbers were not newly measured in US20070092572A1, “Bone cement compositions and the like comprising an RNAIII-inhibiting peptide” (priority 2005, published 2007), which cites them from elsewhere.

Read-outs that look alike come from different tables or passages of the source. Where no end group is shown, it is not given here.

The subject of one data set is S. aureus. The following applies: non-amidated versus amide form.
The subject of a further data set is S. aureus MS. The settings on record: Osteomyelitis, rabbit, strain MS, +RIP.
The subject of data set [1] is S. aureus LS-1. The following applies: Arthritis, mouse, strain LS-1, +RIP.
Data set [2] relates to MRSA, MRSE, VISA, VISE, GISA, GISE, MSSA, MSSE. The settings on record: Graft injection, rat, +RIP.
A further data set has as its system S. aureus 8325-4. The following applies: Keratitis, rabbit, strain 8325-4, +RIP.
For data set [3], the system named is S. aureus LS-1. The following applies: Sepsis, mouse, strain LS-1, +RIP.
A further data set has as its system S. aureus Newbould/AE-1. The settings on record: Mastitis, cow, strain Newbould/AE-1, +RIP.
The next data set concerns S. aureus Smith diffuse. The following applies: Cellulitis/sepsis, mouse, strain Smith diffuse, +RIP.

Take “non-amidated form of synthetic RIP: non-amidated form of the synthetic RIP analogue YSPWTNF (YSPWTNF-OH)”: the “activity of the peptide form” value in the data set on S. aureus is “inactive”.
Regarding “YSPWTNF(-NH2) (YSPWTNF-NH2) [RIP, amide form of a synthetic RIP analogue]”, the “% animals disease free” value in the data set on S. aureus MS was 58%; with S. aureus LS-1 [1] it was 60%; in data set [2] it was “Up to 100%”; in the data set on S. aureus 8325-4 it was 40%; with S. aureus LS-1 [3], 44%; with S. aureus Newbould/AE-1, 70-100%. Moreover, in the data set with S. aureus Smith diffuse, the “% animals disease free” value is on record as “Up to 100%”.
